Test results taken from the NIST ThermoML archive (doi:10.1016/j.jct.2012.02.015).

Settings: 101.33 kPa, Liquid, Alternating current cell with electrodes

[F-].[Li+] [lithium fluoride]
Settings | electrical conductivity [S/m]
1131 K | 855
1136 K | 858
1151 K | 868
1169 K | 877
1173 K | 880
1184 K | 886
1190 K | 888
1194 K | 890
1198 K | 892
1206 K | 896
1210 K | 897
1217 K | 900
1221 K | 899
1229 K | 905
1232 K | 907
1233 K | 907
1237 K | 908
1244 K | 911
1245 K | 911
1258 K | 916
1267 K | 918
1269 K | 918
1283 K | 923

[Br-].[K+] [potassium bromide]
Settings | electrical conductivity [S/m]
1131 K | 190
1136 K | 191
1151 K | 194
1169 K | 196
1190 K | 200
1198 K | 201
1210 K | 202
1221 K | 203
1229 K | 204
1233 K | 204
1237 K | 205
1245 K | 205

[I-].[K+] [potassium iodide]
Settings | electrical conductivity [S/m]
1109 K | 158
1126 K | 160
1143 K | 161
1152 K | 163
1160 K | 164
1170 K | 165
1176 K | 165
1186 K | 166
1203 K | 166
1225 K | 167
1236 K | 167
1246 K | 168
1252 K | 167
1269 K | 167

[Br-].[Rb+] [rubidium bromide]
Settings | electrical conductivity [S/m]
1173 K | 151
1184 K | 152
1194 K | 153
1206 K | 154
1217 K | 154
1232 K | 155
1244 K | 156
1258 K | 157
1269 K | 157

[I-].[Rb+] [rubidium iodide (RbI)]
Settings | electrical conductivity [S/m]
1126 K | 120
1154 K | 122
1166 K | 124
1188 K | 126
1198 K | 127
1210 K | 128
1216 K | 128
1233 K | 130
1248 K | 132
1260 K | 133
1266 K | 133
1297 K | 135
1309 K | 136
